Test: Solubility in polar media (methanol, ambient temperature)
Format: physicochemical

In the case of CCC(C)(C)c1cc(-n2nc3ccccc3n2)c(O)c(C(C)(C)CC)c1 [Tinuvin ® 328], the “Solubility in methanol (wt %)” value is reported as 0.6 wt %.

Reference: patent US7642320B2, “Polymer additives with improved permanence and surface affinity” (Ciba Specialty Chemicals Corporation, priority 2001, dated 2010)
